Legend:
[1] = tested on: brains, heart, liver, muscle, and DRG of the NHPs; test: Maturation of TTM-001 and TTM-002 capsids, NGS enrichment in NHP tissues; type: in vivo; conditions: relative to AAV9 control
Summary of the method: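 Variants carry mutations within and flanking the loop IV peptide insert: positions 450–466 were triplet-randomized, while positions 449–466 received low-frequency point mutations. The combined pool went into two NHPs, and each peptide was scored by NGS enrichment ratio against AAV9.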

[2] = tested on: brain; test: Matured TTM-001 and TTM-002 variants, NGS enrichment in mouse brain; type: in vivo, mice; conditions: relative to AAV9 control
[3] = NGS fold-enrichment of RNA, NHP brain
[4] = NGS fold-enrichment, DRG of NHPs
[5] = NGS fold-enrichment, NHP liver DNA
[6] = NGS fold-enrichment, NHP liver RNA
[7] = NGS fold-enrichment, NHP muscle
[8] = NGS fold-enrichment, RNA, brain of NHPs
[9] = NGS fold-enrichment, heart of NHPs
[10] = NGS fold-enrichment, liver DNA of NHPs
[11] = NGS fold-enrichment, liver RNA of NHPs
[12] = NGS fold-enrichment, muscle of NHPs
[13] = NGS fold-enrichment, brain of mice
[14] = NGS fold-enrichment, mouse brain

| Sequence | Fold Enrichment relative to AAV9, Brain (NHP) [1, 3] | Fold Enrichment relative to AAV9, DRG (NHP) [1, 4] | Fold Enrichment relative to AAV9, DRG (NHP) ([1]; NGS fold-enrichment, NHP DRG) | Fold Enrichment relative to AAV9, Heart (NHP) ([1]; NGS fold-enrichment, NHP heart) | Fold Enrichment relative to AAV9, Liver DNA (NHP) [1, 5] | Fold Enrichment relative to AAV9, Liver RNA (NHP) [1, 6] | Fold Enrichment relative to AAV9, Muscle (NHP) [1, 7] | Fold Enrichment relative to AAV9, Brain (NHP) [1, 8] | Fold Enrichment relative to AAV9, Heart (NHP) [1, 9] | Fold Enrichment relative to AAV9, Liver DNA (NHP) [1, 10] | Fold Enrichment relative to AAV9, Liver RNA (NHP) [1, 11] | Fold Enrichment relative to AAV9, Muscle (NHP) [1, 12] | Fold Enrichment relative to AAV9, Brain (Mouse) [2, 13] | Fold Enrichment relative to AAV9, Brain (Mouse) [2, 14] | other results |
| --- | --- | --- | --- | --- | --- | --- | --- | --- | --- | --- | --- | --- | --- | --- | --- |
| KTFNGSGSPHSKAPNLQT | 121.436 fold | 0.000 fold | 0.000 fold | 0.167 fold | 0.015 fold | 0.000 fold | 0.000 fold | 121.436 fold | 0.167 fold | 0.015 fold | 0.000 fold | 0.000 fold | 168.920 fold | 168.920 fold | – |
| KTFNGSGSPHSKAQGQQT | 99.253 fold | 0.000 fold | 0.000 fold | 0.208 fold | 0.099 fold | 0.128 fold | 0.000 fold | 99.253 fold | 0.208 fold | 0.099 fold | 0.128 fold | 0.000 fold | 81.459 fold | 81.459 fold | – |
| KTFNRSGSPHSKAQNQQI | 86.359 fold | – | 0.000 fold | 113.67 fold | 0.092 fold | 0.000 fold | 0.000 fold | – | – | – | – | – | – | 25.568 fold | – |
| KTFPGSGSPHSKVQNQQT | 199.720 fold | 0.000 fold | 0.000 fold | 0.000 fold | 0.967 fold | 0.000 fold | 0.000 fold | 199.720 fold | 0.000 fold | 0.967 fold | 0.000 fold | 0.000 fold | 97.703 fold | 97.703 fold | – |
| KTFSGSGSPHSKAQNLQT | – | 0.000 fold | – | – | – | – | – | 70.035 fold | 0.327 fold | 0.228 fold | 0.000 fold | 0.303 fold | 70.917 fold | – | – |
| KTGNGSGSPHSKAQIQQT | – | – | – | – | – | – | – | – | – | – | – | – | – | – | Fold Enrichment relative to AAV9, Brain (NHP) ([1]; NGS fold-enrichment of matured AAV capsid variants, NHP brain, RNA): 52.809 fold; Fold Enrichment relative to AAV9, DRG (NHP) ([1]; NHP DRG): 0.000 fold; Fold Enrichment relative to AAV9, Heart (NHP) ([1]; NHP heart): 0.000 fold; Fold Enrichment relative to AAV9, Liver DNA (NHP) ([1]; NHP liver, DNA): 0.012 fold; Fold Enrichment relative to AAV9, Liver RNA (NHP) ([1]; NHP liver, RNA): 0.000 fold; Fold Enrichment relative to AAV9, Muscle (NHP) ([1]; NHP muscle): 0.000 fold; Fold Enrichment relative to AAV9, Brain (Mouse) ([2]; mouse brain): 98.291 fold |
| KTIDGGGSPHSKAQNKQT | 85.019 fold | 0.000 fold | 0.000 fold | 0.000 fold | 0.477 fold | 0.000 fold | 0.000 fold | 85.019 fold | 0.000 fold | 0.477 fold | 0.000 fold | 0.000 fold | 55.517 fold | 55.517 fold | – |
